Data: patent US8487103B2 (Roche Palo Alto LLC, priority 2009, dated 2013)
Counter-ions that a name gives are not always drawn.

Assays:
[1] = target: T1, HCV polymerase (NS5B570n-Con1) (Hepatitis C virus genotype 1b, UniProt Q9WMX2); experiment: HCV NS5B RNA Polymerase Activity; format: biochemical, HCV Con1 strain
T1 construct: contains a 21 amino acid deletion at the C-terminus relative to the full-length HCV polymerase; 6-histidine (N); made in house; host or cells: E. coli BL21(DE) pLysS, plasmid pET 17b
Method: The enzymatic activity of HCV polymerase (NS5B570n-Con1) was measured as the incorporation of radiolabeled nucleotide monophosphates into acid insoluble RNA products. Unincorporated radiolabeled substrate was removed by filtration and scintillant was added to the washed and dried filter plate containing radiolabeled RNA product. The amount of RNA product generated by NS5B570-Con1 at the end of the reaction was directly proportional to the amount of light emitted by the scintillant.
The N-terminal 6-histidine tagged HCV polymerase, derived from HCV Con1 strain, genotype 1b (NS5B570n-Con1) contains a 21 amino acid deletion at the C-terminus relative to the full-length HCV polymerase and was purified from E. coli strain BL21(DE) pLysS. The construct, containing the coding sequence of HCV NS5B Con1 (GenBank accession number AJ242654) was inserted into the plasmid construct pET 17b, downstream of a T7 promoter expression cassette and transformed into E. coli. A single colony was grown overnight as a starter culture and later used inoculate 10 L of LB media supplemented with 100 μg/mL ampicillin at 37° C. Protein expression was induced by the addition of 0.25 mM isopropyl-β-D-thiogalactopyranoside (IPTG) when optical density at […] of the culture was between 0.6 and 0.8 and cells were harvested after 16 to 18 h at 30° C. NS5B570n-Con1 was purified to homogeneity using a three-step protocol including subsequent column chromatography on Ni-NTA, SP-Sepharose HP and Superdex 75 resins.
Each 50 μL enzymatic reaction contained 20 nM RNA template derived from the complementary sequence of the Internal Ribosome Entry Site (cIRES), 20 nM NS5B570n-Con1 enzyme, 0.5 μCi of tritiated UTP (Perkin Elmer catalog no. TRK-412; specific activity: 30 to 60 Ci/mmol; stock solution concentration from 7.5×10^−5 M to 20.6×10^−6 M), 1 μM each ATP, CTP, and GTP, 40 mM Tris-HCl pH 8.0, 40 mM NaCl, 4 mM DTT (dithiothreitol), 4 mM MgCl2, and 5 μl of compound serial diluted in DMSO. Reaction mixtures were assembled in 96-well filter plates (cat #MADVN0B, Millipore Co.) and incubated for 2 h at 30° C. Reactions were stopped by addition of 10% final (v/v) trichloroacetic acid and incubated for 40 min at 4° C. Reactions were filtered, washed with 8 reaction volumes of 10% (v/v) trichloroacetic acetic acid, 4 reaction volumes of 70% (v/v) ethanol, air dried, and 25 μl of scintillant (Microscint 20, Perkin-Elmer) was added to each reaction well.
The amount of light emitted from the scintillant was converted to counts per minute (CPM) on a Topcount® plate reader (Perkin-Elmer, Energy Range: Low, Efficiency Mode Normal, Count Time: 1 min, Background Subtract: none, Cross talk reduction: Off).
Data was analyzed in Excel® (Microsoft) and ActivityBase® (Idbs®). The reaction in the absence of enzyme was used to determine the background signal, which was subtracted from the enzymatic reactions. Positive control reactions were performed in the absence of compound, from which the background corrected activity was set as 100% polymerase activity. All data was expressed as a percentage of the positive control. The compound concentration at which the enzyme-catalyzed rate of RNA synthesis was reduced by 50% (IC50) was calculated by fitting equation (i) to the data where“Y”
[formula] corresponds to the relative enzyme activity (in %), “% Min” is the residual relative activity at saturating compound concentration, “% Max” is the relative maximum enzymatic activity, “X” corresponds to the compound concentration, and “S” is the Hill coefficient (or slope).

Compound | melting point | IC50 [1]
CC(C)(C)c1cc(-c2ccc[nH]c2=O)c2ncc(N3CCC(NS(C)(=O)=O)CC3)nc2c1 | 275 to 280 °C | 
CC(C)(C)c1cc(-c2cc(F)c[nH]c2=O)c2ncc(-c3ccc(NS(C)(=O)=O)cc3)cc2c1 [Compound I-12] | 208 to 210 °C | 
COc1c(CC(F)(F)F)cc(N2CCC(=O)NC2=O)c2ncc(-c3ccc(NS(C)(=O)=O)cc3)cc12 [Compound I-30, N-{4-[8-(Dioxo-tetrahydro-pyrimidin-1-yl)-5-methoxy-6-(2,2,2-trifluoro-ethyl)-quinolin-3-yl]-phenyl}-methanesulfonamide] |  | 17 nM
COc1c(C(C)(C)C)cc(N2CCC(=O)NC2=O)c2ncc(N3CC[C@H](CNS(C)(=O)=O)C3)cc12 [Compound I-31] |  | 1.8 nM
Br.[2H]C([2H])([2H])C(c1cc(-c2ccc(OC)[nH]c2=O)c2ncc(-c3ccc(NS(C)(=O)=O)cc3)cc2c1OC)(C([2H])([2H])[2H])C([2H])([2H])[2H] [Compound I-32, N-{4-[6-[1,1-di(methyl-d3)ethyl-2,2,2-d3]-5-methoxy-8-(6-methoxy-2-oxo-1,2-dihydro-pyridin-3-yl)-quinolin-3-yl]-phenyl}-methanesulfonamide] |  | 0.8 nM
COc1ccc(-c2cc(C3(C#N)CC3)c(OC)c3cc(-c4ccc(NS(C)(=O)=O)cc4)cnc23)c(=O)[nH]1 [Compound I-33] |  | 3.8 nM
COc1ccc(-c2cc(C(C)(C)C)c(OC)c3cc(-c4ccc(NS(C)(=O)=O)cc4)cnc23)c(=O)[nH]1 [Compound I-34, N-{4-[6-tert-Butyl-5-methoxy-8-(6-methoxy-2-oxo-1,2-dihydro-pyridin-3-yl)-quinolin-3-yl]-phenyl}-methanesulfonamide] |  | 10 nM
COc1ccc(-c2cc(C(C)(C)C)c(OC)c3cc(N4CC[C@H](CNS(C)(=O)=O)C4)ccc23)c(=O)[nH]1 [Compound I-36, N-{(S)-1-[7-tert-Butyl-8-methoxy-5-(6-methoxy-2-oxo-1,2-dihydro-pyridin-3-yl)-naphthalen-2-yl]-pyrrolidin-3-ylmethyl}-methanesulfonamide] |  | 8.4 nM
COc1c(C2(C(F)F)CC2)cc(-c2ccc(C)[nH]c2=O)c2ncc(-c3ccc(NS(C)(=O)=O)cc3)cc12 [Compound I-37, N-{4-[6-(1-Difluoromethyl-cyclopropyl)-5-methoxy-8-(6-methyl-2-oxo-1,2-dihydro-pyridin-3-yl)-quinolin-3-yl]-phenyl}-methanesulfonamide] |  | 9.9 nM
COc1ccc(-c2cc(C3(C(F)F)CC3)c(OC)c3cc(-c4ccc(NS(C)(=O)=O)cc4)cnc23)c(=O)[nH]1 [Compound I-38] |  | 0.6 nM
COc1c(C2(C(F)F)CC2)cc(-n2ccc(=O)[nH]c2=O)c2ncc(-c3ccc(NS(C)(=O)=O)cc3)cc12 [Compound I-39, N-{4-[6-(1-Difluoromethyl-cyclopropyl)-8-(2,4-dioxo-3,4-dihydro-2H-pyrimidin-1-yl)-5-methoxy-quinolin-3-yl]-phenyl}-methanesulfonamide] |  | 3.4 nM
COc1c(C(C)(C)C)cc(-c2cc(Cl)c(C)[nH]c2=O)c2ncc(-c3ccc(NS(C)(=O)=O)cc3)cc12 [Compound I-42, N-{4-[6-tert-Butyl-8-(5-chloro-6-methyl-2-oxo-1,2-dihydro-pyridin-3-yl)-5-methoxy-quinolin-3-yl]-phenyl}-methanesulfonamide] |  | 0.6 nM
COc1c(C(C)(C)C)cc(-c2ccc[nH]c2=O)c2ncc(-c3ccc(N)nc3)cc12 [Compound I-43, 3-[3-(6-Amino-pyridin-3-yl)-6-tert-butyl-5-methoxy-quinolin-8-yl]-1H-pyridin-2-one] |  | 2.6 nM
COc1c(C(C)(C)C)cc(-c2ccc(C)[nH]c2=O)c2ncc(CCCCNS(C)(=O)=O)cc12 [Compound I-44, N-{4-[6-tert-Butyl-5-methoxy-8-(6-methyl-2-oxo-1,2-dihydro-pyridin-3-yl)-quinolin-3-yl]-butyl}-methanesulfonamide] |  | 12.2 nM
COc1c(C(C)(C)C)cc(-c2ccc(C)[nH]c2=O)c2ncc(OCCCNS(C)(=O)=O)cc12 [Compound I-45, N-{3-[6-tert-Butyl-5-methoxy-8-(6-methyl-2-oxo-1,2-dihydro-pyridin-3-yl)-quinolin-3-yloxy]-propyl}-methanesulfonamide] |  | 11.8 nM
COc1c(C(C)(C)C)cc(-c2ccc(C)[nH]c2=O)c2ncc(N3CC[C@H](CNS(C)(=O)=O)C3)cc12 [Compound I-46] |  | 0.9 nM
COc1[nH]c(=O)c(-c2cc(C(C)(C)C)c(OC)c3cc(-c4ccc(NS(C)(=O)=O)cc4)cnc23)cc1F [Compound I-47, N-{4-[6-tert-Butyl-8-(5-fluoro-6-methoxy-2-oxo-1,2-dihydro-pyridin-3-yl)-5-methoxy-quinolin-3-yl]-phenyl}-methanesulfonamide] |  | 12.8 nM
COc1c(C(F)(F)F)cc(-c2ccc(C)[nH]c2=O)c2ncc(-c3ccc(NS(C)(=O)=O)cc3)cc12 [Compound I-49, N-{4-[5-Methoxy-8-(6-methyl-2-oxo-1,2-dihydro-pyridin-3-yl)-6-trifluoromethyl-quinolin-3-yl]-phenyl}-methanesulfonamidehydrobromide] |  | 0.7 nM
COc1ccc(-c2cc(C(F)(F)F)c(OC)c3cc(-c4ccc(NS(C)(=O)=O)cc4)cnc23)c(=O)[nH]1 [Compound I-50] |  | 0.6 nM
COc1c(C(F)(F)F)cc(-n2ccc(=O)[nH]c2=O)c2ncc(-c3ccc(NS(C)(=O)=O)cc3)cc12 [Compound I-51, N-{4-[8-(2,4-Dioxo-3,4-dihydro-2H-pyrimidin-1-yl)-5-methoxy-6-trifluoromethyl-quinolin-3-yl]-phenyl}-methanesulfonamide] |  | 3.8 nM
COc1c(C(C)(C)C)cc(-n2ccc(=O)[nH]c2=O)c2ncc(N3CC[C@H](CNS(C)(=O)=O)C3)cc12 [Compound I-52, N-{(S)-1-[6-tert-Butyl-8-(2,4-dioxo-3,4-dihydro-2H-pyrimidin-1-yl)-5-methoxy-quinolin-3-yl]-pyrrolidin-3-ylmethyl}-methanesulfonamide] |  | 3.5 nM
COc1c(CC(F)(F)F)cc(-c2ccc(C)[nH]c2=O)c2ncc(-c3ccc(NS(C)(=O)=O)cc3)cc12 [Compound I-53, N-{4-[5-Methoxy-8-(6-methyl-2-oxo-1,2-dihydro-pyridin-3-yl)-6-(2,2,2-trifluoro-ethyl)-quinolin-3-yl]-phenyl}-methanesulfonamide hydrobomide salt] |  | 9.6 nM
COc1ccc(-c2cc(CC(F)(F)F)c(OC)c3cc(-c4ccc(NS(C)(=O)=O)cc4)cnc23)c(=O)[nH]1 [Compound I-54, N-{4-[5-Methoxy-8-(6-methoxy-2-oxo-1,2-dihydro-pyridin-3-yl)-6-(2,2,2-trifluoro-ethyl)-quinolin-3-yl]-phenyl}-methanesulfonamide] |  | 2.2 nM
COc1c(CC(F)(F)F)cc(-n2ccc(=O)[nH]c2=O)c2ncc(-c3ccc(NS(C)(=O)=O)cc3)cc12 [Compound I-56, N-{4-[8-(2,4-Dioxo-3,4-dihydro-2H-pyrimidin-1-yl)-5-methoxy-6-(2,2,2-trifluoro-ethyl)-quinolin-3-yl]-phenyl}-methanesulfonamide] |  | 38.5 nM
COc1ccc(-c2cc(C(C)(C)C)cc3cc(-c4ccc(NS(C)(=O)=O)cc4)cnc23)c(=O)[nH]1 [Compound I-58] |  | 6 nM
